Experimental data published in patent publication US8936941B2, “Compositions useful for cancer detection and treatment, a cancer stem cell model, and methods of production and use thereof” (priority 2008, dated 2015).

Tests used:
Assay type in all cases: cell-based, human
let-7a miRNA [1] = test: pLet7a-Luc luciferase reporter gene assay in HCT116 cells; settings: normalized to Renilla luciferase
Procedure: Luciferase reporter gene assay. pLet7a-Luc reporter vector contains a let-7a miRNA specific binding site at the 3′UTR of the firefly (Photinus pyralis) luciferase gene obtained from Signosis Inc (FIG. 26). HCT116 and SW480 cells were transfected with the pLet7a-Luc reporter vector, Renilla luciferase expressing plasmid pRL-TK (Promega) along with DCAMKL-1 or scrambled siRNA using Transfectol™ (Ambion Inc.). Luciferase activity was determined as per the manufacturer's instructions (Dual-Luciferase Reporter Assay System; Promega) using a Monolight 2010 luminometer (Analytical Luminescence Laboratory, San Diego, Calif.) as described earlier [Stadler et al., 2008; Sossey-Alaoui et al., 1999]. The activity, normalized to Renilla Luciferase activity, is presented as relative luciferase units relative to control with ±SEM values. Assays were performed in triplicate wells and experiments were repeated 3 times.

DCAMKL-1 = test: siRNA knockdown of DCAMKL-1 in HCT116 cells, real-time RT-PCR and Western blot
Procedure: Cell culture. HCT116, HCT116 p21^−/− and SW480 human colon adenocarcinoma cell lines were obtained from the American Type Culture Collection (ATCC) and grown in Dulbecco's modified eagle's medium (DMEM) supplemented with 10% fetal bovine serum and 100 U/mL penicillin-streptomycin in a humidified chamber at 37° C. with 5% CO2.
Silencer RNA. DCAMKL-1 siRNA (si-DCAMKL-1) sequence targeting the coding region of DCAMKL-1 (Accession # NM_004734 (SEQ ID NO:1)) ([…] (SEQ ID NO:3)) and scrambled control siRNAs (si-Scr) not matching any of the human genes were obtained (Ambion Inc., Austin, Tex.) and transfected using Transfectol™ (Ambion Inc.).
Real-time reverse transcription-PCR analyses. Total RNA isolated either from cells or from human colon cancer cell tumor xenograft samples was subjected to reverse transcription with Superscript™ II RNase H—Reverse Transcriptase and random hexanucleotide primers (Invitrogen, Carlsbad, Calif.). The cDNA was subsequently used to perform Real-time PCR by SYBR chemistry (SYBR® Green I; Molecular Probes) for specific transcripts using gene specific primers and Jumpstart Taq DNA polymerase (Sigma-Aldrich, St. Louis, Mo.). […] The changes in mRNA were expressed as fold change relative to control with ±SEM value.
miRNA analysis. Total miRNA was isolated using mirVana™ miRNA isolation kit (Ambion Inc.). Total miRNA isolated either from cells or from human colon cancer cell tumor xenograft samples were subjected to reverse transcription with Superscript™ II RNase H—Reverse Transcriptase and random hexanucleotide primers (Invitrogen, Carlsbad, Calif.). The cDNA was subsequently used to perform Real-time PCR by SYBR chemistry (SYBR® Green I; Molecular Probes) for pri-let-7a transcript using specific primers and Jumpstart Taq DNA polymerase (Sigma-Aldrich, St. Louis, Mo.). […] The changes in pri-miRNA were expressed as fold change relative to control with ±SEM value. Primers used are: […]
Western Blot analysis. HCT116 and SW480 cells were cultured in a 6 well plates to 40% confluency and were transfected with si-DCAMKL-1 or si-Scr for 72 h. Cells or the tumor xenograft samples were lysed and the concentration of protein was determined by BCA protein assay kit (Pierce Biotechnology Inc., Rockford, Ill.). Forty μg of the protein was size separated in a 7.5-15% SDS polyacrylamide gel and transferred onto a nitrocellulose membrane with a semidry transfer apparatus (Amersham-Pharmacia, Piscataway, N.J.). The membrane was blocked in 5% non-fat dry milk for 1 h and probed overnight with a rabbit anti-DCAMKL-1 antibody (Abcam Inc., Cambridge, Mass.) or with rabbit anti-c-Myc antibody (Santa Cruz). Subsequently, the membrane was incubated with anti-rabbit or anti-goat IgG horseradish peroxidase-conjugated antibodies (Amersham-Pharmacia) for 1 h at room temperature. The 82 kDa DCAMKL-1 and 49 kDa c-Myc proteins were detected using ECL™ Western Blotting detection reagents (Amersham-Pharmacia). Actin (43 kDa), used as loading control was identified using a goat polyclonal IgG (Santa Cruz Biotechnology Inc., Santa Cruz, Calif.).

let-7a miRNA [2] = test: pLet7a-Luc luciferase reporter gene assay in AsPC-1 cells
Description: Luciferase Reporter Gene Assay: pLet7a-Luc reporter vector contains a let-7a miRNA specific binding site at the 3′ UTR of the firefly (Photinus pyralis) luciferase gene, pMiR-144-Luc reporter vector containing miR-144 miRNA specific binding site at the 3′UTR of the firefly luciferase gene and KRAS-Luc reporter vector containing specific binding sites for let-7 family members at the 3′UTR of the firefly luciferase gene were obtained from Signosis, Inc. (Sunnyvale, Calif.). Human pancreatic cancer cell lines were transfected with the pLet7a-Luc, pMiR-144-Luc and KRAS-Luc reporter vectors separately with Renilla luciferase expressing plasmid pRL-TK (Promega) along with DCAMKL-1, or scrambled siRNA-using siPORT™ NeoFX™ transfection reagent (Ambion, Inc.). Luciferase activity was determined as per the manufacturer's instructions (Dual Luciferase Reporter Assay System; Promega) using a BioTek Synergy HT (Winooski, Vt.) as described herein above. The activity, normalized to Renilla luciferase activity, is presented as relative luciferase units relative to control with ±SEM values. Assays were performed in triplicate wells, and experiments were repeated 3 times.

DCAMKL-1, sequence (O15075 other isoform, or with tags, fused parts or gaps): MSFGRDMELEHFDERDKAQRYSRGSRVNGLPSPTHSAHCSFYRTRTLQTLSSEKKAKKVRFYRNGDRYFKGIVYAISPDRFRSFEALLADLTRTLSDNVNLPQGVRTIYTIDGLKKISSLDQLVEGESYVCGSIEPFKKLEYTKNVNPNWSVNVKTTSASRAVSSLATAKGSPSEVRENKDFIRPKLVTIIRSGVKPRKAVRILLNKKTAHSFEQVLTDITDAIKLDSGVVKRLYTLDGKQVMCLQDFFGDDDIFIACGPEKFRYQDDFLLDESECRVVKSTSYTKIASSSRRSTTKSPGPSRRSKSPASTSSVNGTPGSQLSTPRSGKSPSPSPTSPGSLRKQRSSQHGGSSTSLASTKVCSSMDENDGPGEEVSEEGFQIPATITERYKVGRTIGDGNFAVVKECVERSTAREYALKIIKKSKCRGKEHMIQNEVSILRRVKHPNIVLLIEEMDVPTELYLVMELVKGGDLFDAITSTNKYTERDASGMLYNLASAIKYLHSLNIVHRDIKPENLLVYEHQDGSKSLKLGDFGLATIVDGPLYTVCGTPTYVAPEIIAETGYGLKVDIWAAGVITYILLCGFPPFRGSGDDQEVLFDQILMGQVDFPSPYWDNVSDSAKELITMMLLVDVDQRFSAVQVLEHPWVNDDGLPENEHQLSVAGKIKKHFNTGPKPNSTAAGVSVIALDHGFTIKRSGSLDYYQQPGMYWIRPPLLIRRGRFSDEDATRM

si-DCAMKL-1: siRNA targeting the coding region of DCAMKL-1 (NM_004734), sequence GGGAGUGAGAACAAUCUAC (SEQ ID NO:3) (chemistry not given here; listed as Homo sapiens)
luciferase activity (let-7a binding site at 3' UTR) (let-7a miRNA [1]): dose dependent reduction | c-Myc mRNA and protein (DCAMKL-1): Reduction | reduction in Notch-1 mRNA (DCAMKL-1): 40% | Notch-1 and cleaved Notch-1 protein (DCAMKL-1; Western blot): dose dependent reduction | DCAMKL-1 protein (DCAMKL-1; Western blot, 72 h transfection): reduction | reduction in DCAMKL-1 mRNA expression (DCAMKL-1; real-time RT-PCR): > 70% | increase in pri-let-7a miRNA (DCAMKL-1; real-time RT-PCR, compared to controls): 4 fold | luciferase activity (let-7a binding site in 3' UTR) (let-7a miRNA [2]): dose-dependent reduction
